Experiment: Anticancer human tumor 997537-175-T-J1-PDC patient-derived colon adenocarcinoma cell line growth inhibition [POLQ]
Conditions: 997537-175-T-J1-PDC complex spheroid viability, combination with POLQ inhibitors; for IC50: curve of first compound; for viability, T/C: stronger effect = lower value
Method in brief: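 PDC + HUVEC + MSC complex spheroids; POLQ inhibitors ± partner drugs; top conc. at/near clinical Cmax, else 10 microM (SN-38 1 microM), half-log dilutions; 37 degrees C, 5% CO2.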

[1] = second compound 0.0316 µM, first compound 0.00316 µM
[2] = second compound 0.0316 µM, first compound 0.01 µM
[3] = second compound 0.0316 µM, first compound 0.0316 µM
[4] = second compound 0.0316 µM, first compound 0.1 µM
[5] = second compound 0.0316 µM, first compound 0.316 µM
[6] = second compound 0.0316 µM, first compound 1 µM
[7] = second compound 0.1 µM, first compound 0.00316 µM
[8] = second compound 0.1 µM, first compound 0.01 µM
[9] = second compound 0.1 µM, first compound 0.0316 µM
[10] = second compound 0.1 µM, first compound 0.1 µM
[11] = second compound 0.1 µM, first compound 0.316 µM
[12] = second compound 0.1 µM, first compound 1 µM
[13] = second compound 0.316 µM, first compound 0.00316 µM
[14] = second compound 0.316 µM, first compound 0.01 µM
[15] = second compound 0.316 µM, first compound 0.0316 µM
[16] = second compound 0.316 µM, first compound 0.1 µM
[17] = second compound 0.316 µM, first compound 0.316 µM
[18] = second compound 0.316 µM, first compound 1 µM
[19] = second compound 1 µM, first compound 0.00316 µM
[20] = second compound 1 µM, first compound 0.01 µM
[21] = second compound 1 µM, first compound 0.0316 µM
[22] = second compound 1 µM, first compound 0.1 µM
[23] = second compound 1 µM, first compound 0.316 µM
[24] = second compound 1 µM, first compound 1 µM
[25] = second compound 3.16 µM, first compound 0.00316 µM
[26] = second compound 3.16 µM, first compound 0.01 µM
[27] = second compound 3.16 µM, first compound 0.0316 µM
[28] = second compound 3.16 µM, first compound 0.1 µM
[29] = second compound 3.16 µM, first compound 0.316 µM
[30] = second compound 3.16 µM, first compound 1 µM
[31] = second compound 10 µM, first compound 0.00316 µM
[32] = second compound 10 µM, first compound 0.01 µM
[33] = second compound 10 µM, first compound 0.0316 µM
[34] = second compound 10 µM, first compound 0.1 µM
[35] = second compound 10 µM, first compound 0.316 µM
[36] = second compound 10 µM, first compound 1 µM
[37] = second compound 0.0316 µM, first compound 3.16 µM
[38] = second compound 0.0316 µM, first compound 10 µM
[39] = second compound 0.1 µM, first compound 3.16 µM
[40] = second compound 0.1 µM, first compound 10 µM
[41] = second compound 0.316 µM, first compound 3.16 µM
[42] = second compound 0.316 µM, first compound 10 µM
[43] = second compound 1 µM, first compound 3.16 µM
[44] = second compound 1 µM, first compound 10 µM
[45] = second compound 3.16 µM, first compound 3.16 µM
[46] = second compound 3.16 µM, first compound 10 µM
[47] = second compound 10 µM, first compound 3.16 µM
[48] = second compound 10 µM, first compound 10 µM
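Note: luminescence signal used as a surrogate for viable cells; spheroids exposed to drugs for seven days before readout.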

SMILES: CCc1c2c(nc3ccc(O)cc13)-c1cc3c(c(=O)n1C2)COC(=O)[C@]3(O)CC + COC1C(OC(N)=O)C(O)C(Oc2ccc3c(O)c(NC(=O)c4ccc(O)c(CC=C(C)C)c4)c(=O)oc3c2C)OC1(C)C
- IC50 (second compound 0.0316 µM): 20.3 nM
- IC50 (second compound 0.1 µM): 19.4 nM
- IC50 (second compound 0.316 µM): 19.7 nM
- IC50 (second compound 1 µM): 15.3 nM
- IC50 (second compound 3.16 µM): 18.6 nM
- IC50 (second compound 10 µM): 13.1 nM
- viability, T/C [1]: 73.2%
- viability, T/C [2]: 79.5%
- viability, T/C [3]: 33.5%
- viability, T/C [4]: 22.7%
- viability, T/C [5]: 4.91%
- viability, T/C [6]: 4.67%
- viability, T/C [7]: 72.3%
- viability, T/C [8]: 74.8%
- viability, T/C [9]: 32.9%
- viability, T/C [10]: 14.3%
- viability, T/C [11]: 7.35%
- viability, T/C [12]: 6.22%
- viability, T/C [13]: 78%
- viability, T/C [14]: 73%
- viability, T/C [15]: 33.8%
- viability, T/C [16]: 14.3%
- viability, T/C [17]: 6.7%
- viability, T/C [18]: 6.93%
- viability, T/C [19]: 88.8%
- viability, T/C [20]: 60.1%
- viability, T/C [21]: 32.1%
- viability, T/C [22]: 19.2%
- viability, T/C [23]: 6.28%
- viability, T/C [24]: 5.11%
- viability, T/C [25]: 88.9%
- viability, T/C [26]: 74%
- viability, T/C [27]: 29.4%
- viability, T/C [28]: 11.4%
- viability, T/C [29]: 7.04%
- viability, T/C [30]: 7.5%
- viability, T/C [31]: 63.9%
- viability, T/C [32]: 57.9%
- viability, T/C [33]: 26.3%
- viability, T/C [34]: 15%
- viability, T/C [35]: 6.46%
- viability, T/C [36]: 9.61%

SMILES: CNCc1ccc(-c2[nH]c3cc(F)cc4c3c2CCNC4=O)cc1 + COC1C(OC(N)=O)C(O)C(Oc2ccc3c(O)c(NC(=O)c4ccc(O)c(CC=C(C)C)c4)c(=O)oc3c2C)OC1(C)C
- IC50 (second compound 0.0316 µM): > 10000 nM
- IC50 (second compound 0.1 µM): > 10000 nM
- IC50 (second compound 0.316 µM): > 10000 nM
- IC50 (second compound 1 µM): > 10000 nM
- IC50 (second compound 3.16 µM): > 10000 nM
- IC50 (second compound 10 µM): > 10000 nM
- viability, T/C [3]: 104%
- viability, T/C [4]: 96.7%
- viability, T/C [5]: 90.3%
- viability, T/C [6]: 97.5%
- viability, T/C [37]: 101%
- viability, T/C [38]: 104%
- viability, T/C [9]: 102%
- viability, T/C [10]: 97%
- viability, T/C [11]: 80.2%
- viability, T/C [12]: 97.9%
- viability, T/C [39]: 103%
- viability, T/C [40]: 106%
- viability, T/C [15]: 100%
- viability, T/C [16]: 101%
- viability, T/C [17]: 93.6%
- viability, T/C [18]: 87%
- viability, T/C [41]: 95.5%
- viability, T/C [42]: 78.3%
- viability, T/C [21]: 94.7%
- viability, T/C [22]: 101%
- viability, T/C [23]: 101%
- viability, T/C [24]: 92.8%
- viability, T/C [43]: 99.3%
- viability, T/C [44]: 84.1%
- viability, T/C [27]: 97.8%
- viability, T/C [28]: 98.1%
- viability, T/C [29]: 104%
- viability, T/C [30]: 101%
- viability, T/C [45]: 85.8%
- viability, T/C [46]: 86.8%
- viability, T/C [33]: 99.5%
- viability, T/C [34]: 95.9%
- viability, T/C [35]: 105%
- viability, T/C [36]: 96.6%
- viability, T/C [47]: 97.5%
- viability, T/C [48]: 90.3%

SMILES: COc1cccc(OCCCN)c1-c1cc(Nc2cnc(C#N)cn2)n[nH]1 + COC1C(OC(N)=O)C(O)C(Oc2ccc3c(O)c(NC(=O)c4ccc(O)c(CC=C(C)C)c4)c(=O)oc3c2C)OC1(C)C
- IC50 (second compound 0.0316 µM): 46.8 nM
- IC50 (second compound 0.1 µM): 121 nM
- IC50 (second compound 0.316 µM): 77.8 nM
- IC50 (second compound 1 µM): 32.4 nM
- IC50 (second compound 3.16 µM): 57.5 nM
- IC50 (second compound 10 µM): 59.9 nM
- viability, T/C [1]: 100%
- viability, T/C [2]: 95.6%
- viability, T/C [3]: 59.9%
- viability, T/C [4]: 28.1%
- viability, T/C [5]: 33.6%
- viability, T/C [6]: 30.7%
- viability, T/C [7]: 106%
- viability, T/C [8]: 64.9%
- viability, T/C [9]: 76.8%
- viability, T/C [10]: 43.2%
- viability, T/C [11]: 51.6%
- viability, T/C [12]: 17%
- viability, T/C [13]: 107%
- viability, T/C [14]: 95%
- viability, T/C [15]: 63.8%
- viability, T/C [16]: 55.3%
- viability, T/C [17]: 16.9%
- viability, T/C [18]: 30.2%
- viability, T/C [19]: 105%
- viability, T/C [20]: 88%
- viability, T/C [21]: 52.2%
- viability, T/C [22]: 24.1%
- viability, T/C [23]: 23.2%
- viability, T/C [24]: 24.4%
- viability, T/C [25]: 104%
- viability, T/C [26]: 80.7%
- viability, T/C [27]: 55.8%
- viability, T/C [28]: 48.7%
- viability, T/C [29]: 28.6%
- viability, T/C [30]: 47.1%
- viability, T/C [31]: 95.2%
- viability, T/C [32]: 79.8%
- viability, T/C [33]: 73.1%
- viability, T/C [34]: 31.4%
- viability, T/C [35]: 24.9%
- viability, T/C [36]: 28%

SMILES: O=C(c1cc(Cc2n[nH]c(=O)c3ccccc23)ccc1F)N1CCN(C(=O)C2CC2)CC1 + COC1C(OC(N)=O)C(O)C(Oc2ccc3c(O)c(NC(=O)c4ccc(O)c(CC=C(C)C)c4)c(=O)oc3c2C)OC1(C)C
- IC50 (second compound 0.0316 µM): > 10000 nM
- IC50 (second compound 0.1 µM): > 10000 nM
- IC50 (second compound 0.316 µM): > 10000 nM
- IC50 (second compound 1 µM): > 10000 nM
- IC50 (second compound 3.16 µM): > 10000 nM
- IC50 (second compound 10 µM): > 10000 nM
- viability, T/C [3]: 98.2%
- viability, T/C [4]: 99.8%
- viability, T/C [5]: 99.1%
- viability, T/C [6]: 88.3%
- viability, T/C [37]: 93%
- viability, T/C [38]: 101%
- viability, T/C [9]: 73.7%
- viability, T/C [10]: 91.7%
- viability, T/C [11]: 101%
- viability, T/C [12]: 106%
- viability, T/C [39]: 99%
- viability, T/C [40]: 101%
- viability, T/C [15]: 105%
- viability, T/C [16]: 112%
- viability, T/C [17]: 98.9%
- viability, T/C [18]: 96.8%
- viability, T/C [41]: 100%
- viability, T/C [42]: 107%
- viability, T/C [21]: 100%
- viability, T/C [22]: 98%
- viability, T/C [23]: 110%
- viability, T/C [24]: 92.7%
- viability, T/C [43]: 77.1%
- viability, T/C [44]: 96.3%
- viability, T/C [27]: 101%
- viability, T/C [28]: 95.1%
- viability, T/C [29]: 94.7%
- viability, T/C [30]: 86%
- viability, T/C [45]: 95.8%
- viability, T/C [46]: 96.9%
- viability, T/C [33]: 102%
- viability, T/C [34]: 78%
- viability, T/C [35]: 104%
- viability, T/C [36]: 98.5%
- viability, T/C [47]: 91.7%
- viability, T/C [48]: 107%

Reference: PubChem BioAssay AID1963825 (Molecular Pharmacology Branch, DTP, NCI, 2024)
